Some test systems named below: MOLT-4; SR; HOP-62; 786-0; NCI-H23; MDA-N; A549; DU-145; SK-MEL-2; M14; CAKI-1; U-251; MDA-MB-231; HCT-116; SK-MEL-5; SNB-75; OVCAR-5; SNB-19; SF-539.
Holding throughout (experiment): NCI anticancer screen, dose series, 48 h

Each structure is given as a SMILES string.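 96-well plates; 48 h exposure; 5 concentrations. Endpoints by linear interpolation between flanking doses. Not reached: highest tested concentration assigned. The concentration for 50% growth inhibition is given as GI50.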 Calls of active or inactive are those of the source. No stated cut-off is given here; in the data, active = GI50 up to about 1.1 µM and inactive = higher. Where a SMILES comes first, the peptide text is derived from it. The star is where a group is joined. Cbz = O=C(OCc1ccccc1)* Where only a bound is given, the exact number is not on record here.

For the compound `C[C@]12O[C@@]3(C)O[C@@]3(C)[C@]3(C)O[C@]3(C)[C@@]1(C)O2`, the GI50 in the experiment with MOLT-4, with SR, in the experiment on HOP-62, in the experiment on 786-0, in the experiment on NCI-H23 and in the experiment with MDA-N was > 100 µM (inactive) in each case. In addition, the GI50 with A549, in the experiment with DU-145, in the experiment on SK-MEL-2, in the experiment on M14, with CAKI-1 and in the experiment with U-251 was > 100 µM (inactive) throughout. The GI50 is > 100 µM (inactive) in the experiment on MDA-MB-231; > 100 µM (inactive) in the experiment with HCT-116; > 100 µM (inactive) in the experiment with SK-MEL-5; 0.598 µM (active) in the experiment on SNB-75; > 100 µM (inactive) in the experiment with OVCAR-5; > 100 µM (inactive) with SNB-19.
Regarding `Oc1cccc(-c2cn3cc(C(F)(F)F)ccc3n2)c1`, the GI50 is 17.1 µM (inactive) in the experiment on MOLT-4; 31.6 µM (inactive) in the experiment with SR; 48.8 µM (inactive) in the experiment on HOP-62; 54.6 µM (inactive) in the experiment on 786-0; 42.7 µM (inactive) with NCI-H23; 35.7 µM (inactive) in the experiment on MDA-N. Also, the GI50 in the experiment with A549 is 28.6 µM (inactive); in the experiment with DU-145, 18.6 µM (inactive); in the experiment with SK-MEL-2, 39.5 µM (inactive); in the experiment on M14 it was 39.3 µM (inactive); with CAKI-1, 47.9 µM (inactive); in the experiment with U-251, 50.6 µM (inactive). The GI50 in the experiment with MDA-MB-231 is 43.7 µM (inactive); with HCT-116, 39.9 µM (inactive); in the experiment on SK-MEL-5, 22.5 µM (inactive); with OVCAR-5, 37.2 µM (inactive); in the experiment on SNB-19 it was 70.1 µM (inactive).
For `COc1ccc(N[S+]([O-])c2cccc(C)c2)cc1` (configuration not stated), the GI50 with MOLT-4 is 35.3 µM (inactive); with SR, 35.9 µM (inactive); with HOP-62 it was 64 µM (inactive); with 786-0 it was > 100 µM (inactive); in the experiment on SF-539, 27.8 µM (inactive); in the experiment with NCI-H23, > 100 µM (inactive). Moreover, the GI50 in the experiment with MDA-N is > 100 µM (inactive); in the experiment on A549, 29.3 µM (inactive); with DU-145, > 100 µM (inactive); in the experiment on M14, > 100 µM (inactive); with CAKI-1, 98.6 µM (inactive); in the experiment on U-251, 79.1 µM (inactive). For the same compound, the GI50 in the experiment on MDA-MB-231 was 48.5 µM (inactive); in the experiment with HCT-116, 32.7 µM (inactive); in the experiment with SK-MEL-5, 25.6 µM (inactive); with SNB-75, > 100 µM (inactive); in the experiment on OVCAR-5 it was > 100 µM (inactive); with SNB-19 it was > 100 µM (inactive).
On to `CC1C(c2ccccc2)NC(c2ccccc2)CC1(N)C#N` (configuration not stated), for which the GI50 in the experiment on MOLT-4, in the experiment with SR, with HOP-62, with 786-0, with SF-539 and with NCI-H23 was > 100 µM (inactive) each time. In addition, the GI50 in the experiment on MDA-N is > 100 µM (inactive); in the experiment with A549 it was > 100 µM (inactive); in the experiment on DU-145, > 100 µM (inactive); in the experiment on M14 it was 38.8 µM (inactive); in the experiment on CAKI-1, > 100 µM (inactive); in the experiment on U-251 it was > 100 µM (inactive). For the same compound, the GI50 with MDA-MB-231, in the experiment on HCT-116, in the experiment with SK-MEL-5, in the experiment with SNB-75, with OVCAR-5 and in the experiment with SNB-19 was > 100 µM (inactive) each time.
`COC(=O)c1cc(C#N)[nH]c1-c1cccs1`: the GI50 in the experiment on MOLT-4 was > 100 µM (inactive); in the experiment with SR, > 100 µM (inactive); with HOP-62, 47.8 µM (inactive); in the experiment on 786-0, > 100 µM (inactive); with SF-539 it was > 100 µM (inactive); in the experiment on NCI-H23 it was 58.1 µM (inactive). Besides, the GI50 with MDA-N is > 100 µM (inactive); with A549, > 100 µM (inactive); in the experiment on DU-145, 86.9 µM (inactive); in the experiment with M14 it was > 100 µM (inactive); in the experiment with CAKI-1, 56.8 µM (inactive); with U-251, > 100 µM (inactive). Moreover, the GI50 was 52.7 µM (inactive) in the experiment on MDA-MB-231; > 100 µM (inactive) in the experiment with HCT-116; 25.8 µM (inactive) in the experiment on SNB-75; > 100 µM (inactive) with OVCAR-5; > 100 µM (inactive) in the experiment with SNB-19.
With `CCC1(CC)C(=O)N(C(=O)c2ccccc2)N(C(=O)c2ccc(Cl)cc2)C1=O`, the GI50 is 17 µM (inactive) with MOLT-4; 16.5 µM (inactive) with SR; > 75 µM (inactive) with HOP-62; > 75 µM (inactive) with 786-0; > 75 µM (inactive) in the experiment with NCI-H23; > 75 µM (inactive) in the experiment with MDA-N. Besides, the GI50 in the experiment with A549 is > 75 µM (inactive); in the experiment with DU-145, > 75 µM (inactive); with SK-MEL-2, > 75 µM (inactive); with M14 it was > 75 µM (inactive); in the experiment with CAKI-1 it was > 75 µM (inactive); with U-251 it was 59.3 µM (inactive). The GI50 in the experiment on MDA-MB-231 is > 75 µM (inactive); with HCT-116, 43.9 µM (inactive); in the experiment with SK-MEL-5, > 75 µM (inactive); in the experiment on SNB-75, > 75 µM (inactive); in the experiment on OVCAR-5, > 75 µM (inactive); in the experiment on SNB-19, > 75 µM (inactive).
For the compound `COC(=O)CCc1ccc2c(c1)C(=O)CC2`, the GI50 in the experiment on MOLT-4, in the experiment on SR, with HOP-62, in the experiment on 786-0, with SF-539 and in the experiment on NCI-H23 was > 100 µM (inactive) throughout. The GI50 with MDA-N, with A549, in the experiment with DU-145, in the experiment with SK-MEL-2, in the experiment on M14 and in the experiment with U-251 was > 100 µM (inactive) each time. Besides, the GI50 in the experiment with MDA-MB-231 was > 100 µM (inactive); with HCT-116, > 100 µM (inactive); in the experiment on SK-MEL-5, > 100 µM (inactive); in the experiment with SNB-75, 29.7 µM (inactive); with OVCAR-5, > 100 µM (inactive); with SNB-19, > 100 µM (inactive).
Regarding `COc1ccc(-c2[nH]c(-c3ccc(OC)cc3)c(-c3ccccn3)c2-c2ccccn2)cc1`, the GI50 was 34.7 µM (inactive) in the experiment with MOLT-4; 34.6 µM (inactive) in the experiment with SR; > 100 µM (inactive) with 786-0; 63.1 µM (inactive) in the experiment with SF-539; 42.5 µM (inactive) with NCI-H23; > 100 µM (inactive) in the experiment with MDA-N. The GI50 with A549 was 40.8 µM (inactive); in the experiment on DU-145, > 100 µM (inactive); with M14 it was 48.1 µM (inactive); in the experiment on CAKI-1, > 100 µM (inactive); in the experiment on U-251 it was 43.8 µM (inactive); in the experiment on MDA-MB-231, 89.3 µM (inactive). Also, the GI50 with HCT-116 was > 100 µM (inactive); with SK-MEL-5 it was 18.3 µM (inactive); in the experiment with SNB-75 it was 31.2 µM (inactive); with OVCAR-5, > 100 µM (inactive); in the experiment with SNB-19 it was 68.7 µM (inactive).
As for `CC(=O)OCC1OC(Nc2ccc3nc(C)n(-c4cccc(C)c4)c(=O)c3c2)C(OC(C)=O)C(OC(C)=O)C1OC(C)=O` (configuration not stated), the GI50 in the experiment with MOLT-4, in the experiment on SR, with HOP-62, in the experiment with 786-0, in the experiment with NCI-H23 and with MDA-N was > 62.5 µM (inactive) in each case. In addition, the GI50 in the experiment with DU-145, with SK-MEL-2, in the experiment on CAKI-1, with U-251, in the experiment with MDA-MB-231 and with HCT-116 was > 62.5 µM (inactive) in each case. The GI50 in the experiment on SK-MEL-5, in the experiment on SNB-75, in the experiment with OVCAR-5 and in the experiment on SNB-19 was > 62.5 µM (inactive) throughout.
Take `CC(C)=CCN=C(N)N`: the GI50 in the experiment with MOLT-4 was 51.2 µM (inactive); in the experiment with SR, 16.7 µM (inactive); in the experiment with 786-0 it was > 100 µM (inactive); in the experiment with SF-539 it was > 100 µM (inactive); in the experiment with NCI-H23 it was > 100 µM (inactive); in the experiment on MDA-N it was > 100 µM (inactive). In addition, the GI50 in the experiment on A549, in the experiment on DU-145, in the experiment on SK-MEL-2, with CAKI-1, with U-251 and in the experiment on MDA-MB-231 was > 100 µM (inactive) each time. Moreover, the GI50 in the experiment with HCT-116, with SK-MEL-5 and with SNB-19 was > 100 µM (inactive) throughout.
For `CCOC(=O)CCC(NC(=O)C(CC(=O)OC)NC(=O)OCc1ccccc1)C(=O)NC(CC(=O)OC)C(=O)NC(CCC(=O)OCC)C(=O)NC(CC(=O)OC)C(=O)NC(CCC(=O)OCC)C(=O)NC(CC(=O)OCC)C(=O)OCC` (configuration not stated) (Cbz-D(OMe)E(OEt)D(OMe)E(OEt)D(OMe)E(OEt)D(OEt)-OEt; configuration not given here), the GI50 in the experiment with MOLT-4, with SR, in the experiment with HOP-62, with 786-0, in the experiment on NCI-H23 and with MDA-N was > 100 µM (inactive) each time. The GI50 in the experiment with A549, in the experiment on DU-145, in the experiment with SK-MEL-2, in the experiment with U-251, with MDA-MB-231 and in the experiment on HCT-116 was > 100 µM (inactive) throughout. The GI50 with SK-MEL-5, in the experiment with OVCAR-5 and with SNB-19 was > 100 µM (inactive) each time.

For the origin of these results see ChEMBL document CHEMBL1201862, “PubChem BioAssay data set” (2004).
